This is an account of results in patent US20170212981A1, “METHODS FOR SCREENING THERAPEUTIC AGENT FOR PROTEIN CONFORMATIONAL DISEASES” (SOOKMYUNG WOMEN'S UNIVERSITY INDUSTRY ACADEMIC COOPERATION …, priority 2016, published 2017).

Like-named read-outs stand apart in the source and are kept apart here.

In data set [1] the target is T1, Aβ1-40 monomers, oligomers, fibrils (Homo sapiens, UniProt P05067).
T1 construct: Synthetic Aβ1-40 was purchased from American Peptide Co; purchased American Peptide Co. (Sunnyvale, Calif.); host or cells: chemical synthesis
Description: Emission of dye incubated with preformed Aβ monomers, oligomers and fibrils. Conditions: Aβ 20 μM. The class given is binding. As to the method:
Synthetic Aβ1-40 was purchased from American Peptide Co. (Sunnyvale, Calif.) in lyophilized form. Dry peptide was dissolved in 1,1,1,3,3,3-hexafluoro-2-isopropanol (HFIP) and incubated at 25° C. for 1 h to remove any preformed aggregates. It was aliquoted into small aliquots and dried using a speed-vac. The dry peptide was stored at −20° C. until required, where each aliquot was then dissolved in 5 M GuHCl 10 mM Tris.Cl pH 8 to 1 mM peptide solution. After sonication in a sonicating water bath for 15 min, the solution was diluted with phosphate-buffered saline (PBS), pH 7.4, and stored on ice until use. This freshly prepared sample is referred to as monomer. To form fibrils, 100 μM sample is incubated for 24 h at 37° C. with 5 s shaking at a 7 min interval. […] Prior to fluorescence assays, it is resolubilized in deionized distilled water and diluted in PBS. […]
HPLC-MS was taken on an Agilent-1200 with a DAD detector and a single quadrupole mass spectrometer (6130 series). […] Spectroscopic and quantum yield data were measured on a SpectraMax M2 spectrophotometer (Molecular Devices). Compounds in solvent (100 μL) in 96-well polypropylene plates was for fluorescence measurement. […] 1H-NMR and 13C-NMR spectra were recorded on Bruker AMX500 (500 MHz) spectrometers, and chemical shifts are expressed in parts per million (ppm) and coupling constants are reported as a J value in Hertz (Hz).

The next data set has as its target T2, Aβ1-40 (Homo sapiens, UniProt P05067).
T2 construct: Synthetic Aβ1-40 was purchased from American Peptide Co; purchased American Peptide Co. (Sunnyvale, Calif.); host or cells: chemical synthesis
Description: Time-dependent fibril formation monitored by dye fluorescence. Conditions: Aβ1-40 at 37° C. with shaking; aliquots added to dye. The class given is binding. As to the method: For monitoring of fibril formation over time, 40 µM peptide solution of Aβ1-40 was prepared as above and incubated at 37° C. with 5 s shaking at every 7 min interval. Fluorescence readings were taken at various time point intervals by mixing a 30 μL aliquot of peptide solution to […]. ThT signal was monitored at 480 nm by 444 nm excitation, whereas BD-Oligo was excited at 530 nm and its emission detected at 585 nm. Fluorescence was measured using a SpectraMax M2 spectrophotometer (Molecular Devices, Sunnyvale, Calif.). Aβ1-40 was also coincubated with dye to study any effects the dye may have on fibril formation.

The target of a further data set is T3, Aβ oligomers (Homo sapiens, UniProt P05067).
T3 construct: Preformed oligomers were prepared by Aβ1-40 peptide solubilized in borate-buffered saline; purchased American Peptide Co. (Sunnyvale, Calif.); host or cells: chemical synthesis, then cross-linked in house with glutaraldehyde
As to the kind of experiment: Saturation assay, apparent binding constant for Aβ oligomers. Conditions: Aβ oligomers 20 μM, λex=530 nm. As to the method: FIG. 7 depicts BD-Oligo binding constant (Aβ oligomers: 20 μM, λex=530 nm), F is the fluorescence intensity of BD-Oligo at 580 nm after binding with Aβ oligomers; and F0 is the fluorescence intensity of BD-Oligo at 580 nm before binding with Aβ oligomers.
To quantify the affinity of BDOligo for Aβ oligomers, we measured the apparent binding constant (Kd) of BD-Oligo by conducting a saturation assay.

Data set [2] has as its system APP/PS1 transgenic (Tg) AD model mice. Description: Ex vivo imaging of brains after ip injection. The class given is in vivo. As to the method: For ex vivo imaging, a stock solution of BD-Oligo was made at 10 mM in 100% DMSO.
Eighteen month old APP/PS 1 transgenic (Tg) AD model mice were given intraperitoneal (ip) injections with either 1.25 μL of BD-Oligo diluted in 500 μL of saline (n=2) or 500 μL of saline alone (n=2). APP/PS 1 Tg mice develop amyloid plaques from 4 months of age. Mice were anesthetized with an overdose of sodium pentobarbital and perfused 0.1 M PBS, pH 7.4. Brains were removed 24 h after the ip injection and fixed by immersion in periodate-lysine-paraformaldehyde for 24 h, cryo-protected in 30% sucrose for 3 days, and sectioned into 40 μm coronal sections using a cryostat. Brain sections from the BD-Oligoinjected mouse and the control APP/PS 1 mouse that received a saline alone injection were then stained for Aβ using fluorescent immunohistochemistry. Briefly, free floating sections were incubated with MOM blocking reagent (Vector) followed by an overnight incubation at 4° C. with anti-Aβ antibodies 4G8 and 6E10 diluted in MOM protein concentrate (Vector), as the present inventors previously published. Sections were then incubated with a 488 conjugated secondary antibody (Jackson Immunoresearch) for 2 h at room temperature, mounted onto slides, and cover slipped. Staining was visualized using a LMD6500 fluorescent microscope (Leica); 6E10/4G8 staining was imaged using in the green (488) channel, and BD-Oligo was imaged in the red (561) channel.

T3 sequence (P05067 672-711 limits assumed): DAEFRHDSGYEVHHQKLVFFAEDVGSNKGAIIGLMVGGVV
T1 sequence (P05067 672-711 limits assumed): as above
T2 sequence (P05067 672-711 limits assumed): as above

Consider `Cc1ccc2c(c1)sc(-c1ccc(N(C)C)cc1)[n+]2C.[Cl-]` [ThT, Thioflavin T, reference compound], for which, in data set [1] (λex=440 nm, dye 5 μM), the “fluorescence response to Aβ monomers, oligomers, fibrils” value was “increasing order of freshly prepared Aβ monomers, followed by oligomer and fibrils”. Besides, the “incubation time at maximum fluorescence during Aβ fibril formation” value on Aβ1-40 is recorded as “about 1 day”.

With `CCOc1cccc(C=Cc2cc(C)c3n2[B-](F)(F)[N+]2=C(CCC(=O)OCC(Cl)(Cl)Cl)C=CC2=C3)c1O` [BD-Oligo], the “fluorescence enhancement with Aβ monomers, oligomers, fibrils” value in data set [1] (λex=530 nm) is “highest fluorescence enhancement is observed upon incubation with Aβ oligomers”. At Aβ oligomers (detailed statistics of the saturation fit), the “Bmax, best-fit value” stood at 7.886. The Kd at Aβ oligomers (detailed statistics of the saturation fit, read-out: Kd, best-fit value) worked out at 482 nM; at Aβ oligomers (saturation assay, Scatchard plot, emission 580 nm, read-out: apparent binding constant (Kd) for Aβ oligomers) it was 480 nM. In addition, the “incubation time at maximum fluorescence during Aβ fibril formation” value on Aβ1-40 was “about 1 day”. In addition, the “toxicity associated with in vivo injection” value in data set [2] (18 month old APP/PS1 Tg mice) is given as “no apparent toxicity”. For the same compound, the blood-brain barrier penetration result in data set [2] (18 month old APP/PS1 Tg mice, brains removed after 24 h) is listed as “able to cross the BBB”. The “labeling of brain tissue” value in data set [2] (brain sections 24 h later, co-stained with anti-Aβ 6E10/4G8) was “fluorescent labeling of AD brain tissue”.
